Test results published in paper PMC6509344, “Novel CMKLR1 Inhibitors for Application in Demyelinating Disease” (Scientific Reports, 2019).
Structures can show the parent of a compound that is named as a salt. Where two headings read alike, the source gives them in different places.

Tests used:
CMKLR1 = biological target: T1, CMKLR1 (Homo sapiens, UniProt Q99788); test: β-arrestin recruitment assay (chemerin-dependent β-arrestin2 signaling); format: cell-based; settings: for IC50: CMKLR1-CHO-β-Arrestin cells, 20 nM chemerin, read-out: β-arrestin IC50 mean ± SEM (n)
T1 construct: host or cells: CHO-K1 (PathHunter CMKLR1 β-Arrestin cells)
T1 sequence (Q99788 1-373): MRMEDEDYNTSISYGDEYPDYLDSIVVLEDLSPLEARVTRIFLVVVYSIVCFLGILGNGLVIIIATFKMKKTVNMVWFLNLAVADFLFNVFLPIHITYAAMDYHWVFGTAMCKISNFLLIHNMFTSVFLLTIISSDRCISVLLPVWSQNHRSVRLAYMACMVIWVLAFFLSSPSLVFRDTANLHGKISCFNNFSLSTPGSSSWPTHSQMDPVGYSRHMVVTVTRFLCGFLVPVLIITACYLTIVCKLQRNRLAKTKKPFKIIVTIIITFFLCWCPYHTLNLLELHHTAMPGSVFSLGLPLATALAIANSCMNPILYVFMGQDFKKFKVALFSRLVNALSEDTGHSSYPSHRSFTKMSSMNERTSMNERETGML
Procedure: DiscoverX PathHunter® CHO-K1 CMKLR1 β-Arrestin Cells were grown in RPMI lacking phenol red (Gibco, Life Technologies), supplemented with L-glutamine, penicillin-streptomycin, sodium pyruvate, non-essential amino acid, BCS, hygromycin, and G418-sulfate. CMKLR1-CHO-β-Arrestin cells were seeded in 96 well plates at 1 × 10^5 cell/ml- 100 ul/well and incubated overnight at 37 °C, 5% CO2. […] (α-NETA and test compounds were reconstituted in DMSO; final DMSO concentration in each well was 0.1%). After 10 min, 5 ul of recombinant human chemerin (R&D Systems) at a final concentration of 20 nM was added to each well. Plates were incubated for 90 min at 37 °C, 5% CO2. Media was then removed and 50 ul of chemiluminescent substrate (Tropix Gal-Screen, Applied Biosciences) was added. The plate was incubated for 1 hr at RT and luminescence was detected using the SpectraMax M5 plate reader (Molecular Devices). For each independent trial (single replicate dose curves), data was normalized to the maximum signal per compound tested and an IC50 value was generated using GraphPad Prism software. The average IC50 value for n independent trials (as specified in the table) is reported.

(hu)CMKLR1 L1.2 cells = test: Chemotaxis assay toward huChemerin; format: cell-based, human; settings: for IC50: (hu)CMKLR1 L1.2 cells migrating toward huChemerin, 2 h, read-out: Chemotaxis IC50 mean ± SEM (n)
Procedure: (hu)CMKLR1 transfectants (generated in L1.2 pre-B cell lymphoma cells) were grown in RPMI 1640 (Corning) supplemented with L-glutamine, penicillin-streptomycin, and 10% BCS and G418-sulfate (KSE Scientific). DiscoverX PathHunter® CHO-K1 CMKLR1 β-Arrestin Cells were grown in RPMI lacking phenol red (Gibco, Life Technologies), supplemented with L-glutamine, penicillin-streptomycin, sodium pyruvate, non-essential amino acid, BCS, hygromycin, and G418-sulfate.
(hu)CMKLR1 L1.2 cells at 1 × 10^6 cell/ml were treated with 5 mM sodium butyrate (Sigma) overnight to induce hCMKLR1 expression. The next day, cells were washed in migration media (RPMI + 0.5%BSA) and resuspended at 1.5–3 × 10^6 cell/ml. Cells were pre-incubated at RT for 10 min with various concentrations of α-NETA or test compounds (α-NETA and test compounds were reconstituted in DMSO; final DMSO concentration in each well was 0.1%). 100 ul of cells were added to the upper chamber of a 24-well transwell plate (5 um pore size, Costar). Cells were allowed to migrate toward huChemerin ([…] in migration media, bottom chamber) for 2 h, 37 °C, 5% CO2. The number of migrated cells was quantified by flow cytometry (BD LSR2), and live cells were distinguished based on FSC × SSC properties. The background for this assay was typically low with 0 cells migrating to the buffer alone. For each independent trial, data was normalized to the maximum migration per compound tested and an IC50 value was generated using GraphPad Prism software. The average IC50 value for n independent trials (as specified in the table) is reported.

C57BL/6 mice with EAE = test: Experimental autoimmune encephalomyelitis (EAE), MOG35–55/CFA immunization; format: in vivo, mouse; settings: for Day of onset (Mean ± SEM) / Maximum Score (Mean ± SEM) / AUC (Mean ± SEM) of clinical score: Table 4, 10 mg/kg daily to D21, n = 8; for Maximum Score (Mean ± SEM): clinical score 0-5; for AUC (Mean ± SEM) of clinical score: mean clinical score x day
Procedure: C57BL/6 mice were purchased from The Jackson Laboratory. […] Animal experiments were conducted in accordance with approved Veterans Affairs, National Institutes of Health, and Institutional Animal Care and Use Committee guidelines.
CFA consisted of 5 mg/ml mTB (Mycobacterium-tuberculosis H37 Ra, BD Difco) in IFA (Incomplete Freund’s Adjuvant, Sigma). MOG35–55 was reconstituted at 2 mg/ml in PBS. Mice also received 200 ng pertussis toxin (List Biological Laboratories, Inc) by i.p. injection at the time of immunization and two days later. […] For a direct comparison to α-NETA, the DMF and compound doses were also 10 mg/kg in 10% captisol. Mice were monitored daily for clinical disease and scored (0 = normal/healthy, 1 = limp tail, 2 = hindlimb weakness, 3 = hindlimb paralysis, 4 = hindlimb and forelimb paralysis, 5 = moribund/dead).

[1] = Table 3 quaternary ammonium salts

SMILES | IC50 (CMKLR1; Table 2 tertiary amines) [µM] | IC50 (CMKLR1; [1]) [µM] | IC50 ((hu)CMKLR1 L1.2 cells) [µM] | other results
CCN(CC)CCC(=O)c1ccc2ccccc2c1 [Compound 8] | 71.3 |  |  | 
CCCCN(C)CCC(=O)c1ccc2ccccc2c1 [Compound 10] | 44.5 |  |  | 
CN(C)CCC(=O)c1ccc2ccccc2c1 [Compound 7] | 18.5 |  |  | 
C[N+](C)(C)CCC(=O)c1ccccc1.[I-] [Compound 24] |  | 5.6 ± 0.7 | > 100 | activity in chemotaxis assay (in words) ((hu)CMKLR1 L1.2 cells): did not show any activity
COc1cccc(OC)c1C(=O)CCN(C)C [Compound 19] | 10.3 ± 4.5 |  |  | 
COc1ccc(C(=O)CC[N+](C)(C)C)cc1.[I-] [Compound 27] |  | 1.9 ± 0.2 | 4.5 ± 1.5 | activity in β-arrestin2 assay (in words) (CMKLR1): highly active; activity in chemotaxis assay (in words) ((hu)CMKLR1 L1.2 cells): highly active; Day of onset (Mean ± SEM) (C57BL/6 mice with EAE): 16.0 ± 0.9; Maximum Score (Mean ± SEM) (C57BL/6 mice with EAE): 2.1 ± 0.1^¶; AUC (Mean ± SEM) of clinical score (C57BL/6 mice with EAE): 24.3 ± 4.2
COc1cc(OC)cc(C(=O)CC[N+](C)(C)C)c1 [Compound 31] |  | 6 ± 2.2 | > 100 | 
COc1cccc(C(=O)CCN(C)C)c1 [Compound 18] | 64 |  |  | 
COc1cccc(OC)c1C(=O)CC[N+](C)(C)C.[I-] [Compound 30] |  | 2.1 ± 1.1 | 6.8 | activity in β-arrestin2 assay (in words) (CMKLR1): highly active; activity in chemotaxis assay (in words) ((hu)CMKLR1 L1.2 cells): highly active
CN(C)CCC(=O)C1CCCCC1 [Compound 20] | > 100 |  |  | activity in β-arrestin2 assay (in words) (CMKLR1): complete loss of activity
COc1ccc2ccccc2c1C(=O)CCN(C)C [Compound 6] | 6.2 ± 2.5 |  |  | Day of onset (Mean ± SEM) (C57BL/6 mice with EAE): 14.5 ± 0.4; Maximum Score (Mean ± SEM) (C57BL/6 mice with EAE): 2.4 ± 0.2; AUC (Mean ± SEM) of clinical score (C57BL/6 mice with EAE): 25.2 ± 4.0
COc1ccccc1C(=O)CCN(C)C [Compound 16] | > 100 |  |  | 
COc1ccccc1C(=O)CC[N+](C)(C)C.[I-] [Compound 26] |  | 2.9 ± 1.6 | 7.2 | activity in β-arrestin2 assay (in words) (CMKLR1): highly active; activity in chemotaxis assay (in words) ((hu)CMKLR1 L1.2 cells): highly active
COc1ccc(C(=O)CCN(C)C)cc1 [Compound 17] | > 100 |  |  | 
C[N+](C)(C)CCS(=O)(=O)c1ccccc1 [Compound 35] |  |  |  | activity in β-arrestin2 assay (in words) (CMKLR1): inactive
CCN(C)CCC(=O)c1ccc2ccccc2c1 [Compound 9] | 39.6 |  |  | 
COc1cccc(C(=O)CC[N+](C)(C)C)c1 [Compound 28] |  | 3.8 ± 1.7 | 14.6 ± 4.8 | 
COc1ccc2cc(C(=O)CCN(C)C)ccc2c1 [Compound 11] | > 100 |  |  | 
COc1ccc2ccccc2c1C(=O)CC[N+](C)(C)C [Compound 33] |  | 0.6 ± 0.3 | 10.7 | 
COc1ccc(C(=O)CC[N+](C)(C)C)c(OC)c1 [Compound 29] |  | 4.8 ± 1.6 | 17.4 ± 2.2 | 
COc1ccc2cc(C(=O)CC[N+](C)(C)C)ccc2c1 [Compound 32] |  | 1.5 ± 0.3 | 20 ± 6.2 | 
C[N+](C)(C)CCC(=O)c1ccc2ccccc2c1 [Compound 23] |  | 2.5 ± 0.9 | 24.1 | 
COC(=O)/C=C/C(=O)OC [Tecfidera, dimethyl fumarate, reference compound] |  |  |  | day of EAE onset (mean ± SEM) (C57BL/6 mice with EAE; Fig. 1 study, 10 mg/kg daily in 10% captisol, s.c., d29 onset assumed for 2 α-NETA mice): 14 ± 2 days
C[N+](C)(C)CCC(=O)C1CCCCC1 [Compound 25] |  | 11.9 | > 100 | 
